Structures can show the parent of a compound that is named as a salt. Marks after values point to notes of the source that are not given here. Values belong to the molecule of their own block, whether it stands above or below them.
What was measured:
[1] = system: HOXA9/DNA binding (HBS, HOXA9-binding site); set-up: species or system human; conditions: ELISA-derived assay and EMSA, Figure 1; SAR discussion
K562 cells = experiment: Colony-forming assay K562; assay type: cell-based, human; conditions: 2.5μM, 10 days, 1000 cells/well, mean +/− s.e.m
MigA9 cells [2] = conditions: 2.5μM, 10 days; for MigA9 Number of colonies, Total: 1000 cells/well
[3] = system: HOXA9 binding site 5′-ATTTA; experiment: DNase I footprinting
HMG-box protein = HMG-box protein DNA binding; conditions: specificity control
[4] = system: HOXA9-mediated transactivation; experiment: HOXA9-driven luciferase assay; assay type: cell-based, human; conditions: K562 transfected with pCMV-AD-HOXA9 and wild-type HBS reporter, 20μM, 48H
[5] = system: Itgam, Oasl2, Akap13, Arfgef1 expression in MigA9 cells; experiment: qRT-PCR of differentiation-associated genes; assay type: cell-based, murine; conditions: MigA9, 5 or 10μM, 48 hours
MigA9 and/or HT-29 cells = experiment: Cellular distribution by fluorescence microscopy; assay type: cell-based; conditions: intrinsic fluorescence; MigA9 20 μM 2h and/or HT-29 5μM 16H
HBS DNA sequence = experiment: Circular dichroism on HBS oligonucleotide; assay type: binding; conditions: 300-400 nm, increasing drug/DNA ratio
MigA9 cells [6] = experiment: Cell cycle and sub-G1 analysis; assay type: cell-based, murine
HOXA9/HBS complex = assay type: binding, human; conditions: from EMSA quantification

Structure (SMILES): N=C(N)c1ccc(-c2ccc(-c3ccc(C(=N)N)cc3)s2)cc1 [DB351]
- HOXA9/DNA binding inhibition (in words) [1]: inactive

Structure (SMILES): N=C(N)c1ccc(-c2ccc(-c3nc4ccc(C(=N)N)cc4[nH]3)s2)cc1 [DB818]
- K562 Number of colonies, Total (K562 cells): 448 +/− 17
- MigA9 Number of colonies, Total (MigA9 cells [2]): 101
- MigA9 colonies, BFU-E (%) (MigA9 cells [2]; share of total colonies): 3 (3%)
- MigA9 colonies, Total (%) (MigA9 cells [2]; share of total colonies): 100%
- recognition of 5′-ATTTA site in DNase I footprinting [3]: protected site was clearly evidenced
- inhibition of DNA binding of the HMG-box protein (HMG-box protein): failed to inhibit
- inhibition of HOXA9-mediated transactivation (luciferase) [4]: able to inhibit
- over-expression of Itgam, Oasl2, Akap13 and Arfgef1 [5]: over-expression

Structure (SMILES): N=C(N)c1ccc(-c2ccc(-c3nc4cc(C(=N)N)ccc4o3)o2)cc1 [DB828]
- MigA9 Number of colonies, BFU-E (MigA9 cells [2]): 2
- MigA9 Number of colonies, CFU-GM (MigA9 cells [2]): 90
- MigA9 Number of colonies, CFU-M (MigA9 cells [2]): 16
- MigA9 Number of colonies, Total (MigA9 cells [2]): 170
- MigA9 colonies, Total (%) (MigA9 cells [2]; share of total colonies): 100%
- recognition of 5′-ATTTA site in DNase I footprinting [3]: failed to recognize
- entry into cells and localization in the nucleus (MigA9 and/or HT-29 cells): localized to the nucleus
- inhibition of HOXA9-mediated transactivation (luciferase) [4]: failed
- induced CD signal (HBS DNA sequence): only weak CD changes
- over-expression of Itgam, Oasl2, Akap13 and Arfgef1 [5]: failed to achieve the similar results

Structure (SMILES): N=C(Nc1ccc(-c2ccc(-c3ccc(NC(=N)c4ccccn4)cc3)[nH]2)cc1)c1ccccn1 [DB883]
- recognition of 5′-ATTTA site in DNase I footprinting [3]: failed to recognize

Structure (SMILES): N=C(N)c1ccc(-c2cccc(-c3nc4ccc(C(=N)N)cc4[nH]3)c2)cc1 [DB911]
- entry into cells and localization in the nucleus (MigA9 and/or HT-29 cells): could not be detected

Structure (SMILES): N=C(N)c1ccc(-c2ccc(-c3ccc4ccc(C(=N)N)cc4c3)cc2)cc1 [DB1177]
- sub-group for HOXA9/DNA binding inhibition (HOXA9/HBS complex): Medium
- recognition of 5′-ATTTA site in DNase I footprinting [3]: much weaker binding activity

Continued, in another order:

- recognition of 5′-ATTTA site in DNase I footprinting [3]: protected site was clearly evidenced
- inhibition of DNA binding of the HMG-box protein (HMG-box protein): failed to inhibit
- inhibition of HOXA9-mediated transactivation (luciferase) [4]: able to inhibit
Structure (SMILES): N=C(N)c1cccc(-c2ccc(-c3nc4cc(C(=N)N)ccc4[nH]3)cc2)c1 [DB1055]
- K562 Number of colonies, Total (K562 cells): 467 +/− 12
- % SubG1 48H (MigA9 cells [6]; MigA9, 15 μM): 1.27 +/− 0.20%
- MigA9 Number of colonies, BFU-E (MigA9 cells [2]): 2
- MigA9 Number of colonies, CFU-G (MigA9 cells [2]): 58
- MigA9 Number of colonies, CFU-M (MigA9 cells [2]): 55
- MigA9 Number of colonies, Total (MigA9 cells [2]): 115
- MigA9 colonies, CFU-GM (%) (MigA9 cells [2]; share of total colonies): 0 (0%)
- MigA9 colonies, Total (%) (MigA9 cells [2]; share of total colonies): 100%

- recognition of 5′-ATTTA site in DNase I footprinting [3]: much weaker binding activity
Structure (SMILES): N=C(N)c1ccc(-c2ccc(-c3cc4ccc(C(=N)N)cc4[nH]3)o2)cc1 [DB1878]
- % SubG1 48H (MigA9 cells [6]; MigA9, 10 μM): 15.94 +/− 1.80 ^$ %
- % SubG1 48H (MigA9 cells [6]; MigA9, 15 μM): 27.88 +/− 16.14 * %

- recognition of 5′-ATTTA site in DNase I footprinting [3]: protected site was clearly evidenced
Structure (SMILES): N=C(N)c1ccc(-c2ccc(-c3cc4ccc(C(=N)N)cc4[nH]3)s2)cc1 [DB1879, 2-(5-(4-Carbamimidoylphenyl)thiophen-2-yl)-1H-indole-6-carboximidamide diydrochloride]

- recognition of 5′-ATTTA site in DNase I footprinting [3]: protected site was clearly evidenced
Structure (SMILES): N=C(N)c1ccc(-c2ccc(-c3cc4ccc(C(=N)N)cc4[nH]3)s2)nc1 [DB2529, 2-(5-(5-Carbamimidoylpyridin-2-yl)thiophen-2-yl)-1H-indole-6-carboximidamide trihydrochloride]

Reference: publication PMC6561105 (Journal of medicinal chemistry, 2019)
